Measurements as given in US10035789B2, “Compounds useful for treating disorders related to RET” (BLUEPRINT MEDICINES CORPORATION, priority 2016, dated 2018).

Legend:
RET V804L = target: T1, RET V804L (Homo sapiens, UniProt P07949, V804L); test: RET V804L Gatekeeper Mutant Assay at KM (Caliper electrophoretic mobility shift); assay type: biochemical; settings: 10 μM ATP, 25° C., 120 minutes
T1 construct: purchased ProQinase 1096-0000-1

wild type RET = target: T2, wild type RET (Homo sapiens, UniProt P07949); test: RET Wild Type Assay at KM (Caliper electrophoretic mobility shift); assay type: biochemical; settings: 25 μM ATP, 25° C., 120 minutes
T2 construct: purchased ProQinase 1090-0000-1
T2 sequence (P07949 29-1114): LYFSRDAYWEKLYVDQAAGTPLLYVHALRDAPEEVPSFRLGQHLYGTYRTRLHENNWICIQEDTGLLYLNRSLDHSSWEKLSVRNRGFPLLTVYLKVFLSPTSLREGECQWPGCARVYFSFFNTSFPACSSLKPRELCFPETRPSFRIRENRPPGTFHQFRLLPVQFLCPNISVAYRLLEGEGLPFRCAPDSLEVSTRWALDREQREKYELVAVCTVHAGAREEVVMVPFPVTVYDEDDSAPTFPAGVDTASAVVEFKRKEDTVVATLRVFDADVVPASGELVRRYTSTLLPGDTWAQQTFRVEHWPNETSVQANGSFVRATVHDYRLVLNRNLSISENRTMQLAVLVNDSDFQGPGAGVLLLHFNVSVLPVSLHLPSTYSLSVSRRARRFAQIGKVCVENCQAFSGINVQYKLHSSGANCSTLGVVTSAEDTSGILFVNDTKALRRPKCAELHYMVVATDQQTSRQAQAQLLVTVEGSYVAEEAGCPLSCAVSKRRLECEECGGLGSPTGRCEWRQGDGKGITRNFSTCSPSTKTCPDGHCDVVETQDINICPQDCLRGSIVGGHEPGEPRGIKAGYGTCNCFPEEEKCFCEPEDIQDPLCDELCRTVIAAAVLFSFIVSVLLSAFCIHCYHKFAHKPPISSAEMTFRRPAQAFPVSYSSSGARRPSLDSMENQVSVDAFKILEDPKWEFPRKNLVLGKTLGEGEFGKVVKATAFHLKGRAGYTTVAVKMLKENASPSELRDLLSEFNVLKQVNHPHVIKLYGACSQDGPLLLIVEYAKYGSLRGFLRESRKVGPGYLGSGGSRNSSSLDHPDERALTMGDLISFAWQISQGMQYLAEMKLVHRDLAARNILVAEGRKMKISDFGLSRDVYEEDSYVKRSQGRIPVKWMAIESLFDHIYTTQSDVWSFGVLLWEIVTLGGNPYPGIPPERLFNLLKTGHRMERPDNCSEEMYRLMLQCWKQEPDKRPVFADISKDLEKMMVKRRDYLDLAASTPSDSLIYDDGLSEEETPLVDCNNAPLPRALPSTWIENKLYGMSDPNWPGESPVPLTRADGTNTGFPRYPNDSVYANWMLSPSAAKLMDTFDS

T1 sequence (P07949 29-1114 V804L): as the sequence (P07949 29-1114) above, with V776L counted along it

Row | Compound | IC50 (RET V804L) | IC50 (wild type RET)
1 | Cc1cc(Nc2cc(C)[nH]n2)nc(C2CCC(C(=O)N[C@@H](C)c3ccc(-n4cc(F)cn4)nc3)C2)n1 (mixture of isomers) [Compound 106, N—((S)-1-(6-(4-fluoro-1H-pyrazol-1-yl)pyridin-3-yl)ethyl)-3-(4-methyl-6-((5-methyl-1H-pyrazol-3-yl)amino)pyrimidin-2-yl)cyclopentane-1-carboxamide] | < 10 nM | < 10 nM
2 | Cc1cc(Nc2cc(C)[nH]n2)nc(C2(O)CCC(C(=O)NCc3ccc(-n4nc(C)cc4C)nc3)C2)c1 (mixture of isomers) [Compound 111] | < 10 nM | < 10 nM
3 | Cc1cc(Nc2cc(C)[nH]n2)nc(C2(O)CCC(C(=O)N[C@@H](C)c3cnc(-n4cc(F)cn4)cn3)C2)c1 (mixture of isomers) [Compound 123] | < 10 nM | < 10 nM
4 | Cc1cc(Nc2cc(C)[nH]n2)nc(C2(O)CCC(C(=O)NCc3ccc(-n4cc(Cl)cn4)nc3)C2)c1 (mixture of isomers) [Compound 126] | < 10 nM | < 10 nM
5 | Cc1cc(Nc2cc(C)[nH]n2)nc([C@@H]2CC[C@H](C(=O)N[C@@H](C)c3ccc(-n4cc(F)cn4)nc3)C2)n1 (single isomer, unassigned) [Compound 107] | 10 to 100 nM | 10 to 100 nM
6 | Cc1cc(Nc2cc(C)[nH]n2)nc([C@H]2CC[C@@H](C(=O)N[C@@H](C)c3ccc(-n4cc(F)cn4)nc3)C2)n1 (single isomer, unassigned) [Compound 108] | 10 to 100 nM | 10 to 100 nM
7 | Cc1cc(Nc2cc(C)[nH]n2)nc([C@@H]2CC[C@@H](C(=O)N[C@@H](C)c3ccc(-n4cc(F)cn4)nc3)C2)n1 (single isomer, unassigned) [Compound 109] | < 10 nM | < 10 nM
8 | Cc1cc(Nc2cc(C)[nH]n2)nc([C@H]2CC[C@H](C(=O)N[C@@H](C)c3ccc(-n4cc(F)cn4)nc3)C2)n1 (single isomer, unassigned) [Compound 110] | < 10 nM | < 10 nM
9 | Cc1cc([C@@H]2CC[C@@](C)(C(=O)N[C@@H](C)c3ccc(-n4cc(F)cn4)nc3)C2)nc(Nc2cc(C)[nH]n2)n1 (single isomer, unassigned) [Compound 116, (1R,3R or 1S,3S)—N—((S)-1-(6-(4-fluoro-1H-pyrazol-1-yl)pyridin-3-yl)ethyl)-1-methyl-3-(6-methyl-2-((5-methyl-1H-pyrazol-3-yl)amino)pyrimidin-4-yl)cyclopentane-1-carboxamide] | < 10 nM | < 10 nM
10 | Cc1cc([C@@H]2CC[C@](C)(C(=O)N[C@@H](C)c3ccc(-n4cc(F)cn4)nc3)C2)nc(Nc2cc(C)[nH]n2)n1 (single isomer, unassigned) [Compound 117, (1R,3R or 1S,3S)—N—((S)-1-(6-(4-fluoro-1H-pyrazol-1-yl)pyridin-3-yl)ethyl)-1-methyl-3-(6-methyl-2-((5-methyl-1H-pyrazol-3-yl)amino)pyrimidin-4-yl)cyclopentane-1-carboxamide] | < 10 nM | < 10 nM
11 | Cc1cc(Nc2cc(C)[nH]n2)nc([C@]2(O)CC[C@@H](C(=O)N[C@@H](C)c3ccc(-n4cc(F)cn4)nc3)C2)c1 (single isomer, unassigned) [Compound 121] | – | < 10 nM
12 | Cc1cc(Nc2cc(C)[nH]n2)nc([C@@]2(O)CC[C@H](C(=O)N[C@@H](C)c3ccc(-n4cc(F)cn4)nc3)C2)c1 (single isomer, unassigned) [Compound 122] | < 10 nM | < 10 nM
13 | Cc1cc(Nc2cc(C3CC3)[nH]n2)nc([C@@]2(O)CC[C@H](C(=O)NCc3ccccc3)C2)c1 [Compound 100] | < 10 nM | 10 to 100 nM
14 | Cc1cc(Nc2cc(C)[nH]n2)nc([C@@]2(O)CC[C@@H](C(=O)NCc3ccc(-n4cccn4)nc3)C2)c1 [Compound 101] | < 10 nM | 10 to 100 nM
15 | Cc1cc(Nc2cc(C)[nH]n2)nc([C@]2(O)CC[C@H](C(=O)NCc3ccc(-n4cccn4)nc3)C2)c1 [Compound 102] | 10 to 100 nM | 10 to 100 nM
16 | Cc1cc(Nc2cc(C)[nH]n2)nc([C@]2(O)CC[C@@H](C(=O)NCc3ccc(-n4cccn4)nc3)C2)c1 [Compound 103] | < 10 nM | < 10 nM
17 | Cc1cc(Nc2cc(C)[nH]n2)nc([C@@]2(O)CC[C@H](C(=O)NCc3ccc(-n4cccn4)nc3)C2)c1 [Compound 104] | < 10 nM | 10 to 100 nM
18 | CCOc1ccc(CNC(=O)C2CC[C@](O)(c3cc(C)cc(Nc4cc(C5CC5)[nH]n4)n3)C2)cc1 (stereo partly shown) [Compound 105] | < 10 nM | < 10 nM
19 | Cc1cc(Nc2cc(C)[nH]n2)nc([C@@H]2CC[C@](C)(C(=O)N[C@@H](C)c3ccc(-n4cc(F)cn4)nc3)C2)n1 [Compound 112] | 10 to 100 nM | > 100 nM
20 | Cc1cc(Nc2cc(C)[nH]n2)nc([C@H]2CC[C@@](C)(C(=O)N[C@@H](C)c3ccc(-n4cc(F)cn4)nc3)C2)n1 [Compound 113] | 10 to 100 nM | 10 to 100 nM
21 | Cc1cc(Nc2cc(C)[nH]n2)nc([C@H]2CC[C@](C)(C(=O)N[C@@H](C)c3ccc(-n4cc(F)cn4)nc3)C2)n1 [Compound 114] | < 10 nM | < 10 nM
22 | Cc1cc(Nc2cc(C)[nH]n2)nc([C@@H]2CC[C@@](C)(C(=O)N[C@@H](C)c3ccc(-n4cc(F)cn4)nc3)C2)n1 [Compound 115] | – | < 10 nM
23 | Cc1cc(Nc2cc(C)[nH]n2)nc(C2(O)CCC(C(=O)N[C@@H](C)c3ccc(-n4cc(F)cn4)nc3)C2)c1 (stereo partly shown) [Compound 118] | < 10 nM | < 10 nM
24 | Cc1cc(Nc2cc(C)[nH]n2)nc([C@@]2(O)CC[C@@H](C(=O)N[C@@H](C)c3ccc(-n4cc(F)cn4)nc3)C2)c1 [Compound 119] | < 10 nM | < 10 nM
25 | Cc1cc(Nc2cc(C)[nH]n2)nc([C@]2(O)CC[C@H](C(=O)N[C@@H](C)c3ccc(-n4cc(F)cn4)nc3)C2)c1 [Compound 120] | 10 to 100 nM | 10 to 100 nM
26 | Cc1cc(Nc2cc(C)[nH]n2)nc([C@@]2(O)CC[C@H](C(=O)N[C@@H](C)c3cnc(-n4cc(F)cn4)cn3)C2)c1 [Compound 124] | < 10 nM | < 10 nM
27 | Cc1cc(Nc2cc(C)[nH]n2)nc([C@]2(O)CC[C@@H](C(=O)N[C@@H](C)c3cnc(-n4cc(F)cn4)cn3)C2)c1 [Compound 125] | < 10 nM | 10 to 100 nM
28 | Cc1cc(Nc2cc(C3CC3)[nH]n2)nc([C@@]2(O)CC[C@H](C(=O)NCc3ccc(-n4cc(F)cn4)nc3)C2)c1 [Compound 127] | < 10 nM | < 10 nM
29 | Cc1cc(Nc2cc(C)[nH]n2)nc([C@]2(O)CC[C@@](C)(C(=O)N[C@@H](C)c3ccc(-n4cc(F)cn4)nc3)C2)c1 [Compound 128] | < 10 nM | < 10 nM
30 | Cc1cc(Nc2cc(C)[nH]n2)nc([C@@]2(O)CC[C@](C)(C(=O)N[C@@H](C)c3ccc(-n4cc(F)cn4)nc3)C2)c1 [Compound 129] | < 10 nM | < 10 nM
